Columns and labels:
[1] = tested on: Normal Human Epidermal Keratinocytes (NHEKs); assay: Cytotoxicity assay (MTS), cell viability/proliferation; type: cell-based; settings: 24 h exposure, 10, 20, 50 and 100 μg/ml, vs control and DMSO vehicle control
Procedure: (§1) Human Umbilical Vein Endothelial cells (HUVEC), Adult Normal Human Epidermal Keratinocytes (NHEK), Normal Human Dermal fibroblast (NHDF) and related media for cell culture including endothelial basal and growth medium-2 (EBM-2, EGM-2), keratinocyte basal and growth medium-2 (KBM-2, KGM™-2), fibroblast basal and growth medium (FBM, FGM™) were purchased from Lonza. The cell types were selected due to their important physiologic role in early and late stages of wound healing. Cells were incubated at 37° C. and 5% CO2 throughout the examples. Phosphate-Buffered Saline (PBS), [3-(4,5-dimethylthiazol-2-yl)-5-(3-carboxymethoxyphenyl)-2-(4-sulfophenyl)-2H-tetrazolium (MTS) (Promega) colorimetric assay and growth factor reduced matrigel BD (Corning) were from Sigma-Aldrich.
(§2) In order to determine cell viability, HUVECs, NHDFs, and NHEKs were cultured in their growth media to reach 80% confluency. Cells were seeded at the density of 5×10^3 cell per 96 well plate in a total volume of 100 μl in each well. After seeding, the cells were incubated for 24 hours at 37° C. and 5% CO2 to allow for cell attachment. Media was changed and replaced with media supplemented with the desired concentration of the test compounds (10, 20, 50 and 100 μg/ml), being first dissolved at 10 mg/ml in DMSO and subsequently diluted in culture media. The vehicle control was culture medium supplemented with DMSO 0.5% (Macron Fine Chemicals), representing the highest final concentration of DMSO used to dissolve the natural compound. Following 24 hours of incubation, […] and incubated for 2 hours.

[2] = tested on: Human Umbilical Vein Endothelial Cells (HUVECs); assay: as above; type: cell-based; settings: 24 h exposure, 10, 20, 50 and 100 μg/ml, vs control and DMSO vehicle control
Procedure: as §1, §2

[3] = tested on: Normal Human Dermal Fibroblasts (NHDFs); assay: as above; type: cell-based; settings: 24 h exposure, 10, 20, 50 and 100 μg/ml, vs control and DMSO vehicle control
Procedure: as §1, §2

HUVECs = assay: Capillary tube formation on matrigel; type: cell-based, human; settings: 10 and 20 μg/ml
Procedure: [formula] where Wn is the width of gap after every 4 hours and W0 is the initial width zero right after forming a scratch. Capillary Tube Formation Matrigel kept in a −20° C. freezer and thawed on ice overnight in a 4° C. refrigerator. A total of 50 μl of thawed matrigel was added to each well of pre-chilled 96-well plate and then incubated for 30 min at 37° C. to form a gel. Next, 100 μl of a HUVEC cell suspension (passage 2-6) in conditioned media (20000 cell/well) including the compounds of this invention was added to gel and incubated at 37° C. for 8 hours. The number of junctions in tubes was examined using a phase contrast inverted microscope (Invitrogen EVOS FL Auto Cell Imaging) and compared to the conditions with no compound (negative control).

NHEKs = assay: In vitro scratch assay (simulated wound closure, cell migration); type: cell-based, human; settings: for NHEK gap closure / level of wound closure vs control: compounds 10 and 20 μg/ml, extract 50 μg/ml, over 20 h, control growth media; for time of wound closure of keratinocyte compared to the control (growth media): after multiple different time intervals
Procedure: (§3) In Vitro Scratch Assay Cell migration was assessed through making a scratch on confluent monolayers of NHDFs and NHEKs. A total of 15×10^4 cells per well were seeded on a 24 well plate and left overnight to reach confluency. The cell layer was then scraped using a 200 μl pipet tip and any cell debris was washed away with PBS. The samples were supplemented with different concentration of the compounds of interest in growth media and incubated at 37° C. and 5% CO2 for 20 hours. Images were taken every 4 hours using a phase contrast Nikon Eclipse Ti-E inverted microscope. Quantification of percent wound healing was performed by measuring the gap distance using the following formula, [formula] where Wn is the width of gap after every 4 hours and W0 is the initial width zero right after forming a scratch. Capillary Tube Formation

NHDFs = assay: as above; type: cell-based, human; settings: for time of wound closure of fibroblast compared to the control (growth media): after multiple different time intervals
Procedure: as §3

Structure (SMILES)	toxicity (cell viability, MTS assay) [1]	toxicity (cell viability, MTS assay) [2]	toxicity (cell viability, MTS assay) [3]	capillary tube (tubule) formation, phase contrast microscopy (HUVECs)	number of junctions relative to control groups (HUVECs; 8 h)	NHEK gap closure / level of wound closure vs control (NHEKs; NHEKs)	time of wound closure of keratinocyte compared to the control (growth media) (NHEKs)	NHDF gap closure (NHDFs; NHDFs, 10 μg/ml, all time points up to 20 h)	NHDF wound closure at higher concentration (NHDFs; NHDFs, higher concentration (20 μg/ml), early time points)	time of wound closure of fibroblast compared to the control (growth media) (NHDFs)	percentage of gap closed (simulated wound closure) (NHEKs; NHEKs, 10 μg/ml, 6 h)	NHEK migration rate at higher concentration (NHEKs; NHEKs, higher concentration (20 μg/ml) vs 10 μg/ml)	NHDF gap closure / migration into the scratched gap vs control (NHDFs; NHDFs, compounds 10 and 20 μg/ml, extract 50 μg/ml, over 20 h)
C[C@H]1O[C@@H](Oc2c(-c3cc(O)c(O)c(O)c3)oc3cc(O)cc(O)c3c2=O)[C@@H](O)[C@@H](O)[C@@H]1O [myricetin-3-o-ß-rhamnoside]	No toxicity was observed	No toxicity was observed	No toxicity was observed	formation of tubules assembled by the elongation and joining of HUVECs	approximately 3 fold	Neither myricetin-3-o-ß-rhamnoside nor total P. persica extract led to a significantly higher NHEK gap closure than the control	reduced time of wound closure	accelerated gap closure at all time points	negative effect on wound closure during early time points	reduced time of wound closure			
O=C(/C=C/c1ccc(O)c(O)c1)O[C@@H]1C[C@](O)(C(=O)O)C[C@@H](O)[C@H]1O [3-O-caffeoylquinic acid]				formation of tubules assembled by the elongation and joining of HUVECs		highest level of wound closure	reduced time of wound closure			reduced time of wound closure	approximately 40%	did not lead to a faster migration rate	delayed effect on NHDF gap closure at 20 h post-seeding
